Experimental data from patent US5616606A, “Oligopeptide antiretroviral agents” (priority 1995, dated 1997).
“And” between values parts separate entries of the source, which are not always exact repeats. Equal values may be shown once. “Also recorded” adds a separate entry of the source. Read-outs that look alike come from different tables or passages of the source.

How the values were obtained:
[1] = system: 2.2.15 cells; experiment: toxicity analysis, neutral red dye uptake in 2.2.15 cells; conditions: triplicate, ± standard deviation
[2] = system: calf thymus DNA; experiment: ethidium displacement assay, drug-DNA binding constant, calf thymus DNA; conditions: relative to ethidium 10^7 M^-1, average of repeat measurements
[3] = system: HBV; experiment: inhibition of HBV DNA replication in 2.2.15 cell cultures; assay type: cell-based; conditions: for INT[…] DNA MONO.: 24 hours following the 9th day of treatment; for INT[…] DNA MONO. / HBV VIRION DNA DAY 0 / HBV VIRION DNA DAY 6 / HBV VIRION DNA DAY 9: single well
[4] = system: HIV-1; conditions: for Anti-HIV-1 Activity (National Cancer Institute Designation): inactive, moderate or active; for INFECTED RESPONSE % of Control: Table IX
[5] = solubility in DMSO, MeOH, H2O; assay type: physicochemical
[6] = system: T4 lymphocytes (CEM cell line); experiment: NCI anti-HIV screen, toxicity control in uninfected cells; assay type: cell-based; conditions: Table IX
[7] = system: poly(dA-dT); experiment: ethidium displacement assay, poly(dA-dT); conditions: relative to ethidium 9.5 × 10^6 M^-1, average of repeat measurements
[8] = biological target: Moloney Leukemia Virus reverse transcriptase (Moloney murine leukemia virus, UniProt P03355); experiment: inhibition of MLV associated reverse transcriptase activity; conditions: 50% inhibitory dose after 120 min incubation
[9] = system: SC-1 cells; experiment: toxicity TD50 reported with the anti-MLV test; conditions: Table IV
[10] = system: Moloney murine leukemia virus (MLV); experiment: anti-Moloney murine leukemia virus (MLV) plaque test; assay type: cell-based; conditions: anti-MLV plaque count
[11] = 10 μM, listed as Compound 14, dihydrochloride
[12] = 50 μM, listed as Compound 14, dihydrochloride

Cl.Cl.Cn1cc(NC(=O)c2cc(NC(=O)CC(=O)Nc3cc(C(=O)Nc4cc(C(=O)NCCC(N)=O)n(C)c4)n(C)c3)cn2C)cc1C(=O)NCCC(N)=O [Compound 4, N,N'-Di(1-methyl-2-[1-methyl-2-carboxamido(3-proprionamide)-4-pyrrole]-4-pyrrolyl)malonamide dihydrochloride]
NEUTRAL RED DYE UPTAKE ([1]; 10 μg/ml): 99 ± 1 % OF CONTROL | NEUTRAL RED DYE UPTAKE ([1]; 100 μg/ml): 100 ± 1 % OF CONTROL | NEUTRAL RED DYE UPTAKE ([1]; 300 μg/ml): 99 ± 1 % OF CONTROL | DNA Binding Constant [2]: 3.6e+07 M⁻¹ | INT[…] DNA MONO. ([3]; 10 μM, dihydrochloride): 2.3 pg/μg CELL DNA and 2.8 pg/μg CELL DNA and 2.1 pg/μg CELL DNA | HBV VIRION DNA DAY 0 ([3]; 10 μM, dihydrochloride): 77 pg/ml CULTURE MEDIUM and 61 pg/ml CULTURE MEDIUM and 64 pg/ml CULTURE MEDIUM | HBV VIRION DNA DAY 6 ([3]; 10 μM, dihydrochloride): 52 pg/ml CULTURE MEDIUM and 55 pg/ml CULTURE MEDIUM and 96 pg/ml CULTURE MEDIUM and 59 pg/ml CULTURE MEDIUM | HBV VIRION DNA DAY 9 ([3]; 10 μM, dihydrochloride): 73 pg/ml CULTURE MEDIUM and 81 pg/ml CULTURE MEDIUM and 62 pg/ml CULTURE MEDIUM and 50 pg/ml CULTURE MEDIUM | INT[…] DNA MONO. ([3]; 50 μM, dihydrochloride): 2.5 pg/μg CELL DNA and 2.8 pg/μg CELL DNA and 2.1 pg/μg CELL DNA and 2.4 pg/μg CELL DNA | HBV VIRION DNA DAY 0 ([3]; 50 μM, dihydrochloride): 63 pg/ml CULTURE MEDIUM and 66 pg/ml CULTURE MEDIUM and 78 pg/ml CULTURE MEDIUM and 74 pg/ml CULTURE MEDIUM | HBV VIRION DNA DAY 6 ([3]; 50 μM, dihydrochloride): 86 pg/ml CULTURE MEDIUM and 70 pg/ml CULTURE MEDIUM and 64 pg/ml CULTURE MEDIUM and 88 pg/ml CULTURE MEDIUM | HBV VIRION DNA DAY 9 ([3]; 50 μM, zero = undetectable, cutoff 0.1 pg/ml, dihydrochloride): 97 pg/ml CULTURE MEDIUM and 65 pg/ml CULTURE MEDIUM and 61 pg/ml CULTURE MEDIUM and 85 pg/ml CULTURE MEDIUM

Cl.Cl.Cn1cc(NC(=O)c2cc(NC(=O)CCC(=O)Nc3cc(C(=O)Nc4cc(C(=O)NCCC(=N)N)n(C)c4)n(C)c3)cn2C)cc1C(=O)NCCC(=N)N [Compound 5]
NEUTRAL RED DYE UPTAKE ([1]; 10 μg/ml): 99 ± 2 % OF CONTROL | NEUTRAL RED DYE UPTAKE ([1]; 30 μg/ml): 100 ± 1 % OF CONTROL | Anti-HIV-1 Activity (National Cancer Institute Designation) [4]: Moderate | DNA Binding Constant [2]: 7.2e+07 M⁻¹

Cl.Cl.Cn1cc(NC(=O)c2cc(NC(=O)/C=C\C(=O)Nc3cc(C(=O)Nc4cc(C(=O)NCCC(=N)N)n(C)c4)n(C)c3)cn2C)cc1C(=O)NCCC(=N)N [Compound 22b]
NEUTRAL RED DYE UPTAKE ([1]; 10 μg/ml): 99 ± 2 % OF CONTROL | NEUTRAL RED DYE UPTAKE ([1]; 30 μg/ml): 98 ± 1 % OF CONTROL | NEUTRAL RED DYE UPTAKE ([1]; 100 μg/ml): 99 ± 1 % OF CONTROL | NEUTRAL RED DYE UPTAKE ([1]; 300 μg/ml): 85 ± 2 % OF CONTROL | Solubility in DMSO ([5]; DMSO): good | Solubility in MeOH ([5]; MeOH): good | […] % of Control ([6]; dose 3.02 × 10^-4 Molar): -0.86 % of Control | […] % of Control ([6]; dose 3.03 × 10^-5 Molar): 112.05 % of Control | […] % of Control ([6]; dose 3.03 × 10^-6 Molar): 103.19 % of Control | […] % of Control ([6]; dose 3.04 × 10^-7 Molar): 100.16 % of Control | […] % of Control ([6]; dose 9.54 × 10^-5 Molar): 94.16 % of Control | […] % of Control ([6]; dose 9.57 × 10^-4 Molar): 5.40 % of Control | […] % of Control ([6]; dose 9.59 × 10^-6 Molar): 112.20 % of Control | […] % of Control ([6]; dose 9.61 × 10^-7 Molar): 100.02 % of Control | Kapp [7]: 3.8e+07 M⁻¹ | INFECTED RESPONSE % of Control ([4]; dose 3.02 × 10^-4 Molar): -0.29 % of Control | INFECTED RESPONSE % of Control ([4]; dose 3.03 × 10^-5 Molar): 114.32 % of Control | INFECTED RESPONSE % of Control ([4]; dose 3.03 × 10^-6 Molar): 44.03 % of Control | INFECTED RESPONSE % of Control ([4]; dose 3.04 × 10^-7 Molar): 28.75 % of Control | INFECTED RESPONSE % of Control ([4]; dose 9.54 × 10^-5 Molar): 84.02 % of Control | INFECTED RESPONSE % of Control ([4]; dose 9.57 × 10^-4 Molar): -0.14 % of Control | INFECTED RESPONSE % of Control ([4]; dose 9.59 × 10^-6 Molar): 115.19 % of Control | INFECTED RESPONSE % of Control ([4]; dose 9.61 × 10^-7 Molar): 32.14 % of Control | Anti-HIV-1 Activity (National Cancer Institute Designation) [4]: Active | INT[…] DNA MONO. [3, 11]: 2.5 pg/μg CELL DNA and 2.2 pg/μg CELL DNA and 2.3 pg/μg CELL DNA and 2.1 pg/μg CELL DNA | HBV VIRION DNA DAY 0 [3, 11]: 50 pg/ml CULTURE MEDIUM and 61 pg/ml CULTURE MEDIUM and 55 pg/ml CULTURE MEDIUM and 67 pg/ml CULTURE MEDIUM | HBV VIRION DNA DAY 6 [3, 11]: 110 pg/ml CULTURE MEDIUM and 120 pg/ml CULTURE MEDIUM and 77 pg/ml CULTURE MEDIUM and 87 pg/ml CULTURE MEDIUM | HBV VIRION DNA DAY 9 [3, 11]: 21 pg/ml CULTURE MEDIUM and 25 pg/ml CULTURE MEDIUM and 22 pg/ml CULTURE MEDIUM and 20 pg/ml CULTURE MEDIUM | INT[…] DNA MONO. [3, 12]: 1.9 pg/μg CELL DNA and 2.0 pg/μg CELL DNA and 2.3 pg/μg CELL DNA | HBV VIRION DNA DAY 0 [3, 12]: 71 pg/ml CULTURE MEDIUM and 89 pg/ml CULTURE MEDIUM and 51 pg/ml CULTURE MEDIUM and 92 pg/ml CULTURE MEDIUM | HBV VIRION DNA DAY 6 [3, 12]: 26 pg/ml CULTURE MEDIUM and 27 pg/ml CULTURE MEDIUM and 36 pg/ml CULTURE MEDIUM and 37 pg/ml CULTURE MEDIUM | HBV VIRION DNA DAY 9 ([3]; 50 μM, zero = undetectable, cutoff 0.1 pg/ml): 1 pg/ml CULTURE MEDIUM | effect on HBV replication (in words) ([3]; tested at 50 and 10 μM, compared with 2',3'-ddC, listed as 14, dihydrochloride): just slightly less than that observed with the control; also recorded: potent inhibitors

Cl.Cl.Cn1cc(NC(=O)c2cc(NC(=O)[C@@H]3C[C@H]3C(=O)Nc3cc(C(=O)Nc4cc(C(=O)NCCC(=N)N)n(C)c4)n(C)c3)cn2C)cc1C(=O)NCCC(=N)N [Compound 23b, N,N'-Di(1-methyl-2-[1-methyl-2-carboxamide-(3-proprionamidine)-4-pyrrole]-4-pyrrolyl)transcylcopropyldicarboxamide dihydrochloride]
ID50 (average ± SD) [8]: 7.0 ± 3.6 µg/mL | Kapp [7]: 5.3e+07 M⁻¹ | EC50 ([4]; Table XI): 3.44 µM | Anti-HIV-1 Activity (National Cancer Institute Designation) [4]: Moderate

Cl.Cl.Cn1cc(NC(=O)c2nc(NC(=O)/C=C\C(=O)Nc3cn(C)c(C(=O)Nc4cn(C)c(C(=O)NCCC(=N)N)n4)n3)cn2C)nc1C(=O)NCCC(=N)N [Compound 39, Bis-Lexitropsin]
Toxicity, TD50 [9]: > 100.00 ug/mL^-1 | Activity, MIC50 [10]: > 100.00 µg/mL
